Paper PMC9699003, “Arene Variation of Highly Cytotoxic Tridentate Naphthoquinone-Based Ruthenium(II) Complexes and In-Depth In Vitro Studies” (Pharmaceutics, 2022)

Key:
[1] = test system: CH1/PA-1 ovarian teratocarcinoma cells; conditions: CH1/PA-1, MTT, 96 h exposure; cited from earlier work
CH1/PA-1 cells = experiment: DCFH-DA assay (ROS levels); format: cell-based, human; conditions: CH1/PA-1, DCFH-DA, up to 2 h

Question: For `CC1=C(O)C(=O)c2ccccc2C1=O` [L, 2-Hydroxy-3-methyl-1,4-naphthoquinone], which IC50 [1] is on record?
Answer: 129 ± 29 µM

Question: With `CC1=C([O-])C([O-])(n2cccn2)c2ccccc2C1=O.Cc1ccc(C(C)C)cc1.[Ru+2]` (racemic) [Compound 1] as the molecule, how does the IC50 [1] read?
Answer: > 50 µM

Question: What about the “ROS level, T/C (treated vs negative control)” value (CH1/PA-1 cells) of the same molecule?
Answer: ≈ 0.5
